The source of these data is patent US6329547A, “Vinylbenzene derivatives” (Santen Pharmaceutical Co., Ltd., priority 1998, dated 2001).

In series [1] the test system is bovine cultured trabecular meshwork cells. The series can be described thus: Effects on morphology of trabecular meshwork cells (change in cell area by image analysis). It is filed as cell-based. Particulars: Bos taurus, 3 h, 37° C., three hours, read-out: EC50 (concentration required to reduce the cell area of the trabecular meshwork cells by 50%). The text has this:
A possibility has been reported that drugs having effects of increasing aqueous humor outflow can be found by evaluating effects of drugs on morphology of cultured trabecular meshwork cells (Invest. Ophthalmol. Vis. Sci., 33, 2631-2640 (1992)). Accordingly, effects of the present compounds on morphology of bovine cultured trabecular meshwork cells were studied in the similar manner to the method described in the above-mentioned literature. Experimental Method Morphological changes in bovine cultured trabecular meshwork cells by adding the present compounds were quantitatively evaluated by image analysis. […] Bovine trabecular meshwork cells (passage number 1 to 5) cultured in a basal medium for mammalian cell culture d-MEM (Dulbecco's Modified Eagle Medium, manufactured by Gibco Co., Ltd.) containing fetal bovine serum (10%), amphotericin B (2.5 μg/ml) and gentamicin (50 μg/ml) were treated with a trypsin-EDTA solution (0.05% trypsin, 0.53 mM EDTA·4 Na) 24 hours before the later drug treatment and seeded in a 24-well plate (10^4 cells/well). Twelve hours before the later drug treatment, the cells were washed with phosphate-buffered physiological saline, and then the medium was replaced by D-MEM containing amphotericin B (2.5 μg/ml) and gentamicin (50 μg/ml) (hereinafter referred to as "medium A"). […] A test compound was dissolved in dimethyl sulfoxide (DMSO), and the medium A was added to the solution, followed by sterilizing the solution by filtration. The medium A was further added to the solution to dilute it at a prescribed concentration. This diluted solution was maintained isothermally under a 5% carbon dioxide gas atmosphere at 37° C. for one hour, from one hour before the later drug treatment to prepare a test compound solution. Method of Measurement First, cells were photographed using a well-scanner one hour before the drug treatment. Next, the medium of the cells was replaced by the test compound solution, and the cells were treated with the drug and incubated under a 5% carbon dioxide gas atmosphere at 37° C. for three hours. Then, the same cells as those photographed one hour before the drug treatment were photographed using the well-scanner. Image Analysis Photographed cell images were incorporated from the photographs into an image analysis system with a CCD camera (manufactured by […] Co., Ltd.). Outlines of the incorporated cell images were traced, and areas were measured. Degrees of the morphological changes made by the test compounds on the trabecular meshwork cells are expressed by the following rates of changes in areas (%).

In series [2] the test system is cynomolgus monkeys (intraocular pressure). The series can be described thus: Intraocular pressure-lowering effects by anterior chamber administration. Type of series: in vivo, cynomolgus monkey. The conditions noted are these: 10 μl of 10^-3 M, 1% DMSO into anterior chamber, vehicle in other eye.
Method: Healthy male cynomolgus monkeys weighing 4.0 to 7.0 kg and being four to seven years old were used as experimental animals.
A test compound to be used was dissolved in dimethyl sulfoxide (DMSO), and then phosphate-buffered physiological saline was added to the solution to dilute it at a prescribed concentration (10^-3 M, 1% DMSO), followed by sterilizing the solution by filtration to prepare a test compound solution.
Only vehicle was administered into the other eye.
The intraocular pressure was measured with an applanation tonometer immediately before and prescribed periods after administering the test compound. […]
IOP(D-t): Intraocular pressure of the eye into which the test compound was administered, measured (t) hours after administering the test compound
IOP(D-0): Intraocular pressure of the eye into which the test compound was administered, measured immediately before administering the test compound
IOP(V-t): Intraocular pressure of the eye into which the vehicle was administered, measured (t) hours after administering the vehicle
IOP(V-0): Intraocular pressure of the eye into which the vehicle was administered, measured immediately before administering the vehicle
In series [3] the test system is trabecular meshwork cells. The conditions noted are these: Japanese Examined Patent Publication No. 13013/1995; cited from earlier work.
The test system of series [4] is laser-induced high intraocular pressure monkey models (intraocular pressure). The series can be described thus: Intraocular pressure-lowering effects by instillation using laser-induced high intraocular pressure animal models. Type of series: in vivo, cynomolgus monkey. Particulars: for Intraocular pressure change difference: 0.3% solution instilled twice a day, six hours after morning instillation, vs vehicle, average of five eyes. The source says: A method of evaluating intraocular pressure-lowering effects of the drugs by instilling them into laser-induced high intraocular pressure monkey models has been reported (Arch. Opththalmol., 105, 249-252 (1987)). Accordingly, intraocular pressure-lowering effects by instilling the present compound were studied in the similar manner to the method described in the above-mentioned literature.
Male cynomolgus monkeys weighing 5 to 6 kg were used for experiment. Five eyes of four monkeys of which intraocular pressure had been elevated by irradiating trabecular meshwork of the monkeys at 100 to 150 spots every one week with an argon laser (Coherent Radiation, Models 800) were used. Laser irradiation conditions were set at 1000 mW and 0.2 sec.
Preparation of Test Compound Solution
A test compound was dissolved in purified water, then concentrated glycerin and sodium chloride were added to the solution to adjust osmotic pressure to 1, and 0.1 M aqueous sodium hydroxide solution was added thereto to adjust pH to 7.4 and to prepare a 0.3% solution. Then, the solution was sterilized by filtration to prepare a test compound solution.
Method of Administering Drugs
First, in order to study effects of a vehicle on intraocular pressure, only vehicle was instilled twice a day (at 10 a.m. and 5 p.m.) for one week continuously. Then, the test compound solution was instilled twice a day (at 10 a.m. and 5 p.m.) for one week continuously.
Intraocular pressure was measured with an applanation tonometer before administering the drug and a prescribed period after the instillation. Chlorpromazine (1 mg/kg) was administered intramuscularly to the cynomolgus monkey one hour before the measurement to sedate the monkey, one drop of a 0.4% oxybuprocaine hydrochloride eyedrops, which is a local anesthetic, was instilled into the monkey, and then the intraocular pressure was measured.
Intraocular pressure change difference (mmHg)=[IOP(D-6)-IOP(D-0)]-[IOP(V-6)-IOP(V-0)]
IOP(D-6): Intraocular pressure measured six hours after the morning instillation of the test compound solution
IOP(D-0): Intraocular pressure measured before administering the test compound solution
IOP(V-6): Intraocular pressure measured six hours after the morning instillation of the vehicle
IOP(V-0): Intraocular pressure measured before administering the vehicle

Consider `C=C(C(=O)c1ccc(/C=C(\C)C(=O)O)cc1)c1ccccc1` [Compound No. 8-9, α-Methyl-4-(2-phenylacryloyl)cinnamic acid], for which, in series [1], the EC50 was found to be 3900 nM.
The same measure, in the same setting: the same measure for `C=C(C(=O)c1ccc(/C=C/C(=O)O)cc1)c1ccc([N+](=O)[O-])cc1` [Compound No. 8-2, 4-[2-(4-Nitrophenyl)acryloyl]cinnamic acid]: 1700 nM.
As to `C=C(CC)C(=O)c1ccc(OCC(=O)O)c(Cl)c1Cl` [Ethacrynic acid, reference compound], the EC50 in series [1] stood at 62000 nM. The “Maximum intraocular pressure-lowering value” in series [2] (average value of five samples) is recorded as 2.0 mmHg. The “effect on intraocular pressure and trabecular meshwork cells reported in the literature” value in series [3] was “lowering intraocular pressure by making a morphological change in trabecular meshwork cells and increasing the rate of aqueous humor outflow”.
Turning to `C=C(C(=O)c1ccc(/C=C/C(=O)O)cc1)c1c(F)c(F)c(F)c(F)c1F` [Compound No. 8-1, 4-[2-(2,3,4,5,6-Pentafluorophenyl)acryloyl]cinnamic acid], the EC50 in series [1] is 660 nM.
For `C=C(C(=O)c1ccc(/C=C/C(=O)O)cc1)c1ccccc1` [Compound No. 8-7, 4-(2-Phenylacryloyl)cinnamic acid], the EC50 in series [1] stood at 810 nM. The “Maximum intraocular pressure-lowering value” in series [2] (average value of six samples) was 7.0 mmHg. The “Intraocular pressure change difference” value is “+5.8 mmHg” in series [4] (1st day); -7.6 mmHg in series [4] (2nd day); -6.6 mmHg in series [4] (3rd day); -1.2 mmHg in series [4] (4th day); -6.6 mmHg in series [4] (5th day); -8.6 mmHg in series [4] (6th day). For the same compound, the “Intraocular pressure change difference” value in series [4] (7th day) is -2.8 mmHg. Besides, the “intraocular pressure-lowering effect (in words)” value in series [4] (instillation, 0.3% solution twice a day for one week) is “excellent intraocular pressure-lowering effect”. Besides, the “disorder in an anterior segment of the eye” value in series [4] (throughout all instillation periods, 0.3% solution twice a day for one week) is given as “No disorder was recognized in an anterior segment of the eye”.
Turning to `C=C(C(=O)c1ccc(/C(C)=C/C(=O)O)cc1)c1ccccc1` [Compound No. 8-10, β-Methyl-4-(2-phenylacryloyl)cinnamic acid], the EC50 in series [1] is 2900 nM.
